Data set [1] deals with U-937. Kind of data set: Upregulation of MDM2 mRNA expression in human U-937 cells overexpressing p53-V272M mutant pretreated for 1 hr followed by culturing in fresh medium for 4 hrs by RT-qPCR analysis. Type of data set: functional, cell-based. Background: In qPCR the cycle at which signal appears reflects the starting amount.
Data set [2] concerns the target T1, PML-RARalpha (Homo sapiens) (UniProt P10276+P29590). Kind of data set: Induction of PML/RARalpha degradation in human NB4 cells assessed as residual protein level at 1 uM incubated for 1 hrs followed by replacement with fresh culture medium and measured after 16 hrs by Western blot analysis (reference value: 1). It counts as cell-based. (In general: Immunoblotting shows a protein as a band on a membrane.)

Data set [3] has as its system U-937. Kind of data set: Induction of extrinsic apoptosis in human U-937 cells overexpressing p53-V272M mutant assessed as upregulation of PERP gene expression by RT-qPCR analysis. It counts as functional, cell-based.
Data set [4] relates to NB-4. Nature of the data set: Inhibition of colony formation in human NB4 cells at 1 to 9 uM pretreated for 1 hr followed by washout and cultured in soft agar containing fresh medium for 18 days by crystal violet staining based assay. Type of data set: functional, cell-based. Conditions: dose 1-9 µM.
The target of data set [5] is T1, PML-RARalpha (Homo sapiens). Kind of data set: Induction of PML/RARalpha degradation in human NB4 cells assessed as appearance of large PML speckles characteristic of normal nuclear bodies at 3 uM incubated for 1 hrs followed by replacement with fresh culture medium and measured after 0.5 to 24 hrs by immunofluorescence analysis. Type of data set: cell-based.
Data set [6] concerns U-937. Kind of data set: Induction of apoptosis in human U-937 cells harboring p53-V272M mutant assessed as increase in early apoptotic cells at 0.5 to 8 uM pretreated for 1 hr followed by culturing in fresh medium for 24 hrs by Annexin V-FITC/7AAD staining based flow cytometry analysis. It counts as functional, cell-based. The conditions noted are these: dose 0.5-8 µM.
Data set [7] relates to HL-60. Kind of data set: Upregulation of MDM2 protein expression in human HL-60 cells overexpressing p53-V272M mutant pretreated for 1 hr followed by culturing in fresh medium for 16 hrs by Western blot analysis. It counts as functional, cell-based.
Data set [8] addresses T1, PML-RARalpha (Homo sapiens). Nature of the data set: Induction of PML/RARalpha degradation in human NB4 cells assessed as residual protein level at 0.1 uM incubated for 1 hrs followed by replacement with fresh culture medium and measured after 16 hrs by Western blot analysis (reference value: 1). It counts as cell-based.
Data set [9] deals with U-937. Nature of the data set: Induction of apoptosis in human U-937 cells harboring p53-V272M mutant assessed as increase in late apoptotic cells at 0.5 to 8 uM pretreated for 1 hr followed by culturing in fresh medium for 24 hrs by Annexin V-FITC/7AAD staining based flow cytometry analysis. It counts as functional, cell-based. Conditions: dose 0.5-8 µM.
Another data set has as its system NCI-H1299. Kind of data set: Upregulation of MDM2 mRNA expression in human NCI-H1299 cells overexpressing p53-V272M mutant at 2 uM pretreated for 1 hr followed by culturing in fresh medium for 8 hrs by RT-qPCR analysis. Type of data set: functional, cell-based.
The subject of data set [10] is NB-4. Nature of the data set: Induction of apoptosis in human NB4 cells assessed as early apoptotic cells at 9 uM preincubated for 1 hrs followed by replacement with fresh culture medium and measured after 24 hrs by Annexin V-FITC/7AAD staining based flow cytometry assay (reference value: 2.15%). Type of data set: functional.
Data set [11] relates to U-937. Kind of data set: Inhibition of colony formation in human U-937 cells harboring p53-V272M mutant at 0.5 to 8 uM pretreated for 1 hr followed by culturing in fresh medium and measured on day 14 by crystal violet staining based assay. The conditions noted are these: dose 0.5-8 µM. It counts as functional, cell-based.
The test system of data set [12] is Cellular tumor antigen p53 (Homo sapiens), P04637 [V272M]. Kind of data set: Restoration of p53-V272M mutant transcriptional activity on PUMA promoter in human NCI-H1299 cells harboring siRNA-mediated CKAP4 knockdown incubated for 24 hrs by firefly/renilla based luciferase reporter assay. Type of data set: cell-based. A general note: A reporter such as luciferase makes a cellular process visible.

Data set [13] can be described thus: Drug uptake in human HepG2 cells assessed as fold increase in arsenic accumulation at 10 uM incubated for 10 mins by ICP-MS analysis. It counts as ADME, cell-based. Conditions: hepg2, 10 min.
In data set [14] the test system is HL-60. Kind of data set: Upregulation of MDM2 mRNA expression in human HL-60 cells overexpressing p53-V272M mutant at 2 uM pretreated for 1 hr followed by culturing in fresh medium for 8 hrs by RT-qPCR analysis. It counts as functional, cell-based.

Activity calls are given as the source filed them. The calls are words filed in the database; no cut-off is given here.

T1 sequence (P10276 whole entry, looked up): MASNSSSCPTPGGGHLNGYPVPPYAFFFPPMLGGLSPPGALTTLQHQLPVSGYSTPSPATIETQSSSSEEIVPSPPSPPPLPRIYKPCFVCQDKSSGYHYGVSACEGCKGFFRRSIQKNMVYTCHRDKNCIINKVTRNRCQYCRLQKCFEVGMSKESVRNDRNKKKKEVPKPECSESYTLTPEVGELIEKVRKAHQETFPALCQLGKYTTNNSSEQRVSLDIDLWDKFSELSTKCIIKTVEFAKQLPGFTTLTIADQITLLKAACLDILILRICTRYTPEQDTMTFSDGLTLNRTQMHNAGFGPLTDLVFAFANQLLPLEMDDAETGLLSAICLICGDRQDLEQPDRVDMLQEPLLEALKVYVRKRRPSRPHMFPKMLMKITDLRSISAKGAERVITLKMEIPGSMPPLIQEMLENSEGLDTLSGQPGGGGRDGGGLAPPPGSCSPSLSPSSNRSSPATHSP
T1 sequence (P29590 whole entry, looked up): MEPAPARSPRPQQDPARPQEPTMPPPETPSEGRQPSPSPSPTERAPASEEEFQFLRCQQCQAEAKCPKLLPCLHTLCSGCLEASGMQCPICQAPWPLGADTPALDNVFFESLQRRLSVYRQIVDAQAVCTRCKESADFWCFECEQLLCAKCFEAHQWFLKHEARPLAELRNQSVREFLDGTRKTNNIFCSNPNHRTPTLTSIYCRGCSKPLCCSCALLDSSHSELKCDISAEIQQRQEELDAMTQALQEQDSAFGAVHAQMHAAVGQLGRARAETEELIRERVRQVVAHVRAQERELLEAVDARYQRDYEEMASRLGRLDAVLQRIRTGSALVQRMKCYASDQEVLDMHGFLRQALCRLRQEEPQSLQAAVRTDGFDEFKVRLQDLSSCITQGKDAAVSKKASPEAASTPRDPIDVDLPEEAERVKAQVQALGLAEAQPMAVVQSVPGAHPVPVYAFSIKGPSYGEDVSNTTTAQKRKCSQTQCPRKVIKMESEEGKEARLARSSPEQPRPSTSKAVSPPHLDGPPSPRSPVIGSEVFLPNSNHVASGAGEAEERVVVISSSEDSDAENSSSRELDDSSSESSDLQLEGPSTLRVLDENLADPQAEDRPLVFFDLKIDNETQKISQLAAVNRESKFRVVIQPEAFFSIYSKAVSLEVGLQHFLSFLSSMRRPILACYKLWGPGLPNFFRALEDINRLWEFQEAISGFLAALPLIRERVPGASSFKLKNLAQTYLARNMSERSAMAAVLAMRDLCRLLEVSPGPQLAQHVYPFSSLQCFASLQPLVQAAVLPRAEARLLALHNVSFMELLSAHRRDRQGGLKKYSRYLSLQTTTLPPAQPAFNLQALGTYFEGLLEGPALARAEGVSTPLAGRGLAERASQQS

For `CC(=O)OC[C@H]1O[C@@H](S[As]2SCCS2)[C@H](OC(C)=O)[C@@H](OC(C)=O)[C@@H]1OC(C)=O`, the outcome (with U-937 [1]; in data set [5]; with U-937 [6]; with HL-60 [7]; in the data set on U-937 [9]; in the data set with NCI-H1299) was Active. The outcome with HL-60 [14] was Active. Further, the Activity in data set [2] turned out to be 0.26; in [8], 0.55; with NB-4 [10], 7.43%. The outcome (in the data set on U-937 [3]; in data set [12]) was inactive. For the same compound, the inhibition entry in the data set with NB-4 [4] and with U-937 [11] was “Active” throughout. The “fold change (FC)” value in data set [13] is 19.

Values taken from ChEMBL document CHEMBL5375988, “AcGlcAs: A Novel P53-Targeting Arsenical with Potent Cellular Uptake and Cancer Cell Selectivity” (J Med Chem, 2023).
